Patent US20170190671A1, “BIS(ARYL)CATECHOL DERIVATIVES AS HERBICIDES” (E I DU PONT DE NEMOURS AND COMPANY, priority 2014, published 2017)

Key:
Test in all cases: Test C preemergence
Type in all cases: in vivo
[1] = tested on: Italian ryegrass (Lolium multiflorum); conditions: Lolium multiflorum, pre-emergence, 336 h, preemergence, scale 0 to 100, read-out: Plant response rating, Ryegrass, Italian
How it was run: (§1)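 Seeded loam-sand soil (preemergence) or young potted plants of 2-18 cm (postemergence) received test chemical formulated with surfactant in a non-phytotoxic solvent. Pots were kept in the greenhouse for 13-15 days before a visual 0-100 control rating relative to controls.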

[2] = tested on: barnyardgrass (Echinochloa crus-galli); conditions: Echinochloa crus-galli, pre-emergence, preemergence, scale 0 to 100, read-out: Plant response rating, Barnyardgrass
How it was run: as §1

[3] = tested on: blackgrass (Alopecurus myosuroides); conditions: Alopecurus myosuroides, pre-emergence, 336 h, preemergence, scale 0 to 100, read-out: Plant response rating, Blackgrass
How it was run: as §1

corn (Zea mays) = conditions: Zea mays, pre-emergence, 336 h, preemergence, scale 0 to 100
How it was run: as §1

[4] = tested on: galium (catchweed bedstraw, Galium aparine); conditions: Galium, pre-emergence, 336 h, preemergence, scale 0 to 100, read-out: Plant response rating, Galium
How it was run: as §1

[5] = tested on: giant foxtail (Setaria faberii); conditions: Setaria faberi, pre-emergence, 336 h, preemergence, scale 0 to 100, read-out: Plant response rating, Foxtail, Giant
How it was run: as §1

[6] = tested on: lambsquarters (Chenopodium album); conditions: Chenopodium album, pre-emergence, 336 h, preemergence, scale 0 to 100, read-out: Plant response rating, Lambsquarters
How it was run: as §1

[7] = tested on: large (Lg) crabgrass (Digitaria sanguinalis); conditions: Digitaria sanguinalis, pre-emergence, 336 h, preemergence, scale 0 to 100, read-out: Plant response rating, Crabgrass, Large
How it was run: as §1

[8] = tested on: oilseed rape (Brassica napus); conditions: Brassica napus, pre-emergence, preemergence, scale 0 to 100, read-out: Plant response rating, Oilseed Rape
How it was run: as §1

[9] = tested on: ragweed (common ragweed, Ambrosia elatior); conditions: Ambrosia artemisiifolia, pre-emergence, 336 h, preemergence, scale 0 to 100, read-out: Plant response rating, Ragweed
How it was run: as §1

soybean (Glycine max) = conditions: Glycine max, pre-emergence, preemergence, scale 0 to 100, read-out: Plant response rating, Soybean
How it was run: as §1

[10] = tested on: velvetleaf (Abutilon theophrasti); conditions: Abutilon theophrasti, pre-emergence, preemergence, scale 0 to 100, read-out: Plant response rating, Velvetleaf
How it was run: as §1

[11] = tested on: waterhemp (common waterhemp, Amaranthus rudis); conditions: Amaranthus tuberculatus, pre-emergence, preemergence, scale 0 to 100, read-out: Plant response rating, Waterhemp
How it was run: as §1

[12] = tested on: winter wheat (Triticum aestivum); conditions: Triticum aestivum, pre-emergence, 336 h, preemergence, scale 0 to 100, read-out: Plant response rating, Wheat
How it was run: as §1

[13] = tested on: yellow nutsedge (Cyperus esculentus); conditions: Cyperus, pre-emergence, 336 h, preemergence, scale 0 to 100, read-out: Plant response rating, Nutsedge, Yellow
How it was run: as §1

How did the pest or weed control at 31 g/ha ([1]; 31 g ai/ha) turn out when `Clc1cnc(Oc2cccc(Cl)c2Oc2ncc(Br)cn2)nc1` [Compound 17, 5-bromo-2-[2-chloro-6-[(5-chloro-2-pyrimidinyl)oxy]phenoxy]pyrimidine] was run?
The pest or weed control at 31 g/ha was 20%.

What about the pest or weed control at 62 g/ha ([1]; 62 g ai/ha) of the same compound?
The pest or weed control at 62 g/ha was 40%.

And the pest or weed control at 125 g/ha ([1]; 125 g ai/ha)?
Its pest or weed control at 125 g/ha is 90%.

What about the pest or weed control at 250 g/ha ([1]; 250 g ai/ha) of the same compound?
Its pest or weed control at 250 g/ha is 95%.

And the pest or weed control at 31 g/ha ([2]; 31 g ai/ha)?
The pest or weed control at 31 g/ha was 20%.

What about the pest or weed control at 62 g/ha ([2]; 62 g ai/ha) of the same compound?
Its pest or weed control at 62 g/ha is 85%.

What about the pest or weed control at 125 g/ha ([2]; 125 g ai/ha) of the same compound?
The pest or weed control at 125 g/ha was 100%.

And the pest or weed control at 250 g/ha ([2]; 250 g ai/ha)?
The pest or weed control at 250 g/ha was 100%.

And the pest or weed control at 31 g/ha ([3]; 31 g ai/ha)?
Its pest or weed control at 31 g/ha is 60%.

And the pest or weed control at 62 g/ha ([3]; 62 g ai/ha)?
Its pest or weed control at 62 g/ha is 90%.

What about the pest or weed control at 125 g/ha ([3]; 125 g ai/ha) of the same compound?
The pest or weed control at 125 g/ha was 95%.

What about the Corn plant response rating (crop injury, 0 = no effect, 100 = complete kill) at 31 g/ha (corn (Zea mays); 31 g ai/ha) of the same compound?
Its Corn plant response rating (crop injury, 0 = no effect, 100 = complete kill) at 31 g/ha is 0%.

What about the Corn plant response rating (crop injury, 0 = no effect, 100 = complete kill) at 62 g/ha (corn (Zea mays); 62 g ai/ha) of the same compound?
Its Corn plant response rating (crop injury, 0 = no effect, 100 = complete kill) at 62 g/ha is 15%.

What about the Corn plant response rating (crop injury, 0 = no effect, 100 = complete kill) at 125 g/ha (corn (Zea mays); 125 g ai/ha) of the same compound?
Its Corn plant response rating (crop injury, 0 = no effect, 100 = complete kill) at 125 g/ha is 55%.

What about the pest or weed control at 31 g/ha ([4]; 31 g ai/ha) of the same compound?
Its pest or weed control at 31 g/ha is 90%.

What about the pest or weed control at 62 g/ha ([4]; 62 g ai/ha) of the same compound?
The pest or weed control at 62 g/ha was 98%.

What about the pest or weed control at 125 g/ha ([4]; 125 g ai/ha) of the same compound?
The pest or weed control at 125 g/ha was 100%.

And the pest or weed control at 31 g/ha ([5]; 31 g ai/ha)?
The pest or weed control at 31 g/ha was 95%.

And the pest or weed control at 62 g/ha ([5]; 62 g ai/ha)?
The pest or weed control at 62 g/ha was 100%.

And the pest or weed control at 125 g/ha ([5]; 125 g ai/ha)?
Its pest or weed control at 125 g/ha is 100%.

And the pest or weed control at 31 g/ha ([6]; 31 g ai/ha)?
Its pest or weed control at 31 g/ha is 85%.

And the pest or weed control at 62 g/ha ([6]; 62 g ai/ha)?
Its pest or weed control at 62 g/ha is 90%.

And the pest or weed control at 125 g/ha ([6]; 125 g ai/ha)?
The pest or weed control at 125 g/ha was 95%.

What about the pest or weed control at 31 g/ha ([7]; 31 g ai/ha) of the same compound?
Its pest or weed control at 31 g/ha is 100%.

What about the pest or weed control at 62 g/ha ([7]; 62 g ai/ha) of the same compound?
The pest or weed control at 62 g/ha was 100%.

What about the pest or weed control at 125 g/ha ([7]; 125 g ai/ha) of the same compound?
Its pest or weed control at 125 g/ha is 100%.

And the plant injury at 31 g/ha ([8]; 31 g ai/ha)?
Its plant injury at 31 g/ha is 85%.

What about the plant injury at 62 g/ha ([8]; 62 g ai/ha) of the same compound?
Its plant injury at 62 g/ha is 90%.

What about the plant injury at 125 g/ha ([8]; 125 g ai/ha) of the same compound?
The plant injury at 125 g/ha was 100%.

What about the plant injury at 250 g/ha ([8]; 250 g ai/ha) of the same compound?
The plant injury at 250 g/ha was 98%.

And the pest or weed control at 31 g/ha ([9]; 31 g ai/ha)?
Its pest or weed control at 31 g/ha is 0%.

What about the pest or weed control at 62 g/ha ([9]; 62 g ai/ha) of the same compound?
Its pest or weed control at 62 g/ha is 25%.

And the pest or weed control at 125 g/ha ([9]; 125 g ai/ha)?
Its pest or weed control at 125 g/ha is 55%.

What about the pest or weed control at 250 g/ha ([9]; 250 g ai/ha) of the same compound?
Its pest or weed control at 250 g/ha is 85%.

And the plant injury at 31 g/ha (soybean (Glycine max); 31 g ai/ha)?
Its plant injury at 31 g/ha is 5%.

And the plant injury at 62 g/ha (soybean (Glycine max); 62 g ai/ha)?
Its plant injury at 62 g/ha is 20%.

And the plant injury at 125 g/ha (soybean (Glycine max); 125 g ai/ha)?
Its plant injury at 125 g/ha is 45%.

And the plant injury at 250 g/ha (soybean (Glycine max); 250 g ai/ha)?
The plant injury at 250 g/ha was 70%.

And the pest or weed control at 31 g/ha ([10]; 31 g ai/ha)?
The pest or weed control at 31 g/ha was 65%.

What about the pest or weed control at 62 g/ha ([10]; 62 g ai/ha) of the same compound?
Its pest or weed control at 62 g/ha is 95%.

And the pest or weed control at 125 g/ha ([10]; 125 g ai/ha)?
Its pest or weed control at 125 g/ha is 100%.

What about the pest or weed control at 250 g/ha ([10]; 250 g ai/ha) of the same compound?
Its pest or weed control at 250 g/ha is 100%.

And the pest or weed control at 31 g/ha ([11]; 31 g ai/ha)?
The pest or weed control at 31 g/ha was 100%.

What about the pest or weed control at 62 g/ha ([11]; 62 g ai/ha) of the same compound?
Its pest or weed control at 62 g/ha is 100%.

And the pest or weed control at 125 g/ha ([11]; 125 g ai/ha)?
Its pest or weed control at 125 g/ha is 100%.

And the pest or weed control at 250 g/ha ([11]; 250 g ai/ha)?
The pest or weed control at 250 g/ha was 100%.

And the plant injury at 31 g/ha ([12]; 31 g ai/ha)?
The plant injury at 31 g/ha was 0%.

What about the plant injury at 62 g/ha ([12]; 62 g ai/ha) of the same compound?
The plant injury at 62 g/ha was 45%.

And the plant injury at 125 g/ha ([12]; 125 g ai/ha)?
Its plant injury at 125 g/ha is 40%.

And the plant injury at 250 g/ha ([12]; 250 g ai/ha)?
Its plant injury at 250 g/ha is 85%.

What about the pest or weed control at 31 g/ha ([13]; 31 g ai/ha) of the same compound?
The pest or weed control at 31 g/ha was 0%.

What about the pest or weed control at 62 g/ha ([13]; 62 g ai/ha) of the same compound?
The pest or weed control at 62 g/ha was 10%.

What about the pest or weed control at 125 g/ha ([13]; 125 g ai/ha) of the same compound?
The pest or weed control at 125 g/ha was 55%.
